Results published in US9512108B2, “9,9,10,10-Tetrafluoro-9,10-dihydrophenanthrene hepatitis C virus inhibitor and application thereof” (NANJING SANHOME PHARMACEUTICAL CO., LTD., priority 2013, dated 2016).
Read-outs that look alike come from different tables or passages of the source.

What was measured:
[1] = test system: HCV genotype 1b replicon; test: Anti-HCV-1b replicon activity (luciferase, Bright-Glo); assay type: cell-based; details: Hepatitis C virus, Huh-7, 72 h, read-out: EC50 against HCV-1b replicon
Description: (§1) Each of the compounds prepared in the above examples of the present invention was dissolved at 10 mM in DMSO, then diluted to 50 μM with DMEM complete medium, then diluted to 20 nM with complete medium containing 0.5% DMSO, and then serially diluted by 3-fold, to obtain a total of 10 concentrations.
(§2) HCV 1b replicon cells, i.e., Huh7 cell line stably transfected with HCV genotype 1b replicon, were provided by WuXi AppTec (Shanghai) Co., Ltd. Specific preparation methods of Huh7 lb replicon cell system can be found in Lohmann V, Korner F, Koch J, Herian U, Theilmann L, Bartenschlager R., Replication of subgenomic hepatitis C virus RNAs in a hepatoma cell line, Science 285 (5424): 110-113 (1999).
(§3) 1) Preparation of compounds: adding 75 μl of the compounds of the present invention at the above concentration gradient to a 96-well plate using POD810 system, with each concentration for each compound in duplicate;
(§4) 2) Preparation of cells: collecting HCV 1b replicon cells in logarithmic phase and resuspending them in DMEM complete medium, and then adding 75 μl of the cell suspension to each well of the above 96-well plate (8×10^3 cells/well); at the same time, establishing zero percent effect (ZPE) control group and hundred percent effect (HPE) control group, with ZPE group using complete culture medium containing 0.5% DMSO instead of the compound, and the HPE group merely containing DMEM medium in the wells.
(§5) 3) Cell culture: placing the 96-well plate in a 37° C., 5% CO2 incubator and culturing for 3 days.
5) Anti-HCV replicon activity assay: adding luciferase luminescence substrate Bright-Glo to each well, and detecting luminescence signal values using the multimode microplate reader within 5 min, with the raw data (RLU) being used for calculation of the anti-HCV activities of the compounds;
(§6) 6) Data processing: processing the raw data using the following formula into the inhibition percentage of the compound against HCV replicon (Inhibition %) and the percentage of cell viability (Viability %): Inhibition %=(RLUZPE−RLUCPD)/(RLUZPE−RLUHPE)×100 Viability %=(RFUCPD−RFUHPE)/(RFUZPE−RFUHPE)×100 wherein CPD: the fluorescence signal value of the well of the compound; ZPE (zero percent effect): the fluorescence signal value of the zero percent effect control; HPE (hundred percent effect): the fluorescence signal value of the hundred percent effect control.
(§7) The Inhibition % and Viability % were introduced into GraphPad Prism software for data processing, respectively, to obtain the half effective concentration EC50 of the compound against HCV replicon and the half cytotoxic concentration CC50.

[2] = Cell viability test (CellTiter-Fluor) in HCV 1b replicon cells; assay type: cell-based; details: human, HCV 1b replicon Huh7 cells, 3 days culture, read-out: CC50 (half cytotoxic concentration)
Description: as §1, §2, §3, §4, §5
4) Cell viability test: after adding detection reagent for fluorescence assay of cell growth to each well and culturing the cells in a 37° C., 5% CO2 incubator for one hour, detecting the fluorescence signal values using the multimode microplate reader, with the raw data (RFU) being used for calculation of the cytotoxicity of the compounds;
as §6, §7

[3] = Huh7 cells stably transfected with HCV genotype 1b replicon

Structure (SMILES)	EC50 [1] [nM]	CC50 at 3 days [2, 3] [nM]	CC50 at 3 days [2] [nM]
COC(=O)N[C@H](C(=O)N1CCCC1c1ncc(-c2ccc(-c3ccc4c(c3)C(F)(F)C(F)(F)c3cc(-c5ccc(-c6cnc([C@@H]7CCCN7C(=O)[C@@H](NC(=O)OC)C(C)(C)C)[nH]6)cc5)ccc3-4)cc2)[nH]1)C(C)(C)C (stereo partly drawn) [Example 2, dimethyl (2S,2′S)-1,1′-((2S,2′S)-2,2′-(5,5′-(4,4′-(9,9,10,10-tetrafluoro-9,10-dihydrophenanthren-2,7-diyl)bis(4,1-phenylene))bis(1H-imidazol-5,2-diyl))bis(pyrrolidin-2,1-diyl))bis(3,3-dimethyl-1-oxobutan-2,1-diyl)dicarbamate]	0.017	> 10	
COC(=O)N[C@H](C(=O)N1[C@@H]2CC[C@@H](C2)[C@H]1c1ncc(-c2ccc3c(c2)C(F)(F)C(F)(F)c2cc(-c4cnc([C@@H]5[C@H]6CC[C@H](C6)N5C(=O)[C@@H](NC(=O)OC)C(C)C)[nH]4)ccc2-3)[nH]1)C(C)C [Example 3, Dimethyl (2S,2′S)-1,1′-((1R,1′R,3S,3′S,4S,4′S)-3,3′-(5,5′-(9,9,10,10-tetrafluoro-9,10-dihydrophenanthren-2,7-diyl)bis(1H-imidazol-5,2-diyl))bis(2-azabicyclo[2.2.1]heptan-3,2-yl))bis(3-methyl-1-oxobutan-2,1-diyl)dicarbamate]	0.017		> 10
COC(=O)N[C@H](C(=O)N1[C@@H]2CC[C@@H](C2)[C@H]1c1ncc(-c2ccc3c(c2)C(F)(F)C(F)(F)c2cc(-c4cnc([C@@H]5[C@H]6CC[C@H](C6)N5C(=O)[C@@H](NC(=O)OC)C(C)(C)C)[nH]4)ccc2-3)[nH]1)C(C)(C)C [Example 4, Dimethyl (2S,2′S)-1,1′-((1R,1′R,3S,3′S,4S,4′S)-3,3′-(5,5′-(9,9,10,10-tetrafluoro-9,10-dihydrophenanthren-2,7-diyl)bis(1H-imidazol-5,2-diyl))bis(2-azabicyclo[2.2.1]heptan-3,2-yl))bis(3,3-dimethyl-1-oxobutan-2,1-diyl)dicarbamate]	0.047	> 10	
COC(=O)N[C@H](C(=O)N1[C@@H]2CC[C@@H](C2)[C@H]1c1ncc(-c2ccc3c(c2)C(F)(F)C(F)(F)c2cc(-c4cnc([C@@H]5[C@H]6CC[C@H](C6)N5C(=O)[C@@H](NC(=O)OC)[C@@H](C)O)[nH]4)ccc2-3)[nH]1)[C@@H](C)O [Example 5, Dimethyl (2S,2′S,3R,3′R)-1,1′-((1R,1′R,3S,3′S,4S,4′S)-3,3′-(5,5′-(9,9,10,10-tetrafluoro-9,10-dihydrophenanthren-2,7-diyl)bis(1H-imidazol-5,2-diyl))bis(2-azabicyclo[2.2.1]heptan-3,2-diyl))bis(3-hydroxy-1-oxobutan-2,1-diyl)dicarbamate]	0.041		> 10
COC(=O)N[C@H](C(=O)N1[C@@H]2CC[C@@H](C2)[C@H]1c1ncc(-c2ccc3c(c2)C(F)(F)C(F)(F)c2cc(-c4cnc([C@@H]5[C@H]6CC[C@H](C6)N5C(=O)[C@@H](NC(=O)OC)[C@@H](C)OC)[nH]4)ccc2-3)[nH]1)[C@@H](C)OC [Example 6, Dimethyl (2S,2′S,3R,3′R)-1,1′-((1R,1′R,3S,3′S,4S,4′S)-3,3′-(5,5′-(9,9,10,10-tetrafluoro-9,10-dihydrophenanthren-2,7-diyl)bis(1H-imidazol-5,2-diyl))bis(2-azabicyclo[2.2.1]heptan-3,2-diyl))bis(3-methoxy-1-oxobutan-2,1-diyl)dicarbamate]	0.014	> 10	
COC(=O)N[C@H](C(=O)N1CCC[C@H]1c1ncc(-c2ccc3c(c2)C(F)(F)C(F)(F)c2cc(-c4cnc([C@@H]5CCCN5C(=O)[C@@H](NC(=O)OC)C(C)(C)C)[nH]4)ccc2-3)[nH]1)C(C)(C)C [Example 7, Dimethyl (2S,2′S)-1,1′-((2S,2′S)-2,2′-(5,5′-(9,9,10,10-tetrafluoro-9,10-dihydrophenanthren-2,7-diyl)bis(1H-imidazol-5,2-diyl))bis(pyrrolidin-2,1-diyl))bis(3,3-dimethyl-1-oxobutan-2,1-diyl)dicarbamate]	0.0063	> 10	
